Drawing on patent US20090275583A1, “ANTIVIRAL COMPOUNDS AND USE THEREOF” (Myriad Genetics, Incorporated, priority 2006, published 2009), this text covers EC50 and IC50 for 23 compounds.

For experiment [1], the system named is HIV-1 laboratory strain, NL4-3. Kind of experiment: MT-4 cytoprotection assay. Type of experiment: cell-based. The procedure, abridged: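 MT-4 cells mock- or batch-infected with NL4-3 (MOI 0.0005) for 2 h, washed, then cultured 4 days with increasing compound concentrations. Viability read by WST-1 tetrazolium reduction: cytoprotection in infected cells, toxicity in mock-infected cells.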

Another experiment relates to HIV-1NL4-3. Kind of experiment: P4-MAGI assay. The experiment is classed as cell-based. The procedure, abridged:
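Cytotoxicity (TC50, 50% growth inhibition) came from WST-1 in uninfected cells. For antiviral activity, compound at rising concentrations was added immediately after HIV-1NL4-3 inoculation (MOI 1, DEAE-Dextran) of P4 cells, CD4+ HeLa cells expressing β-galactosidase from a minimal HIV-1 LTR upon infection.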

The mark [2] stands for this setting: Human immunodeficiency virus 1, NL43, MT4, 96 h, MT-4 cells, four days incubation, WST-1 readout, read-out: MT4 EC50.
Where [3] appears, read: Human immunodeficiency virus 1, NL43, less than about 100 nm, read-out: MT-4 assay EC50 (concentration of compound that reduces the virus induced cytopathic effect by 50%).
[4] abbreviates: Human immunodeficiency virus 1, 24 h, P4 cells, 24 hour incubation, β-galactosidase expression, read-out: P4-MAGI IC50.
Setting [5] is: Human immunodeficiency virus 1, text statement, less than about 100 nm, read-out: P4-MAGI assay IC50.

Structures are written as SMILES. Read-outs that look alike come from different tables or passages of the source.

Usually IC50 stands for the point on the concentration scale where inhibition reaches its midpoint.

As to `C=C(C)[C@@H]1CC[C@]2(C(=O)NCc3cccc(C(=O)NCc4ccc(C(=O)O)cc4)c3)CC[C@]3(C)C(CCC4[C@@]5(C)CC[C@H](O)C(C)(C)C5CC[C@]43C)C12` (stereo partly shown) [Example 7], the EC50 in experiment [1] (setting [2]) was 7.2 nM; in experiment [1] (setting [3]), less than 100 nM. Moreover, the results for the IC50 with HIV-1NL4-3 (setting [4]) and with HIV-1NL4-3 (setting [5]) were 21.4 nM and less than 100 nM, respectively.
Consider `C=C(C)[C@@H]1CC[C@]2(C(=O)NCc3cccc(C(=O)NCCc4ccc(F)c(C(=O)OC)c4)c3)CC[C@]3(C)C(CCC4[C@@]5(C)CC[C@H](O)C(C)(C)C5CC[C@]43C)C12` (stereo partly shown) [Example 33], for which the values for the EC50 in experiment [1] (setting [2]) and in experiment [1] (setting [3]) were 18 nM and less than 100 nM, respectively. Also, the IC50 in the experiment on HIV-1NL4-3 (setting [4]) amounted to 135 nM.
As to `C=C(C)[C@@H]1CC[C@]2(C(=O)NCc3cc(C(=O)NCc4cccc(C(=O)OC)c4)ccc3F)CC[C@]3(C)C(CCC4[C@@]5(C)CC[C@H](O)C(C)(C)C5CC[C@]43C)C12` (stereo partly shown) [Example 102], the figures for the EC50 in experiment [1] (setting [2]) and in experiment [1] (setting [3]) were 0.6 nM and less than 100 nM, respectively. Further, the half-inhibitory concentration (IC50) is 22 nM with HIV-1NL4-3 (setting [4]) and less than 100 nM with HIV-1NL4-3 (setting [5]).
On to `C=C(C)[C@@H]1CC[C@]2(C(=O)NCCc3cccc(C(=O)NCc4ccc(C(=O)N[C@@H](C(=O)O)[C@H](C)O)cc4)c3)CC[C@]3(C)C(CCC4[C@@]5(C)CC[C@H](O)C(C)(C)C5CC[C@]43C)C12` (stereo partly shown) [Example 160], for which the EC50 in experiment [1] (setting [2]) was 39 nM. Moreover, the IC50 in the experiment on HIV-1NL4-3 (setting [4]) worked out at 15 nM.
As to `CC(=O)[C@@H]1CC[C@]2(C(=O)NCCc3cccc(C(=O)NCc4ccc(C(=O)O)cc4)c3)CC[C@]3(C)C(CCC4[C@@]5(C)CC[C@H](O)C(C)(C)C5CC[C@]43C)C12` (stereo partly shown) [Example 264], the EC50 in experiment [1] (setting [2]) stood at 161 nM. In addition, in the experiment with HIV-1NL4-3 (setting [4]), the IC50 came to 29.5 nM.
The matching figures for `C=C(C)[C@@H]1CC[C@]2(C(=O)NCCc3cccc(C(=O)NCC4COC(C(=O)O)CO4)c3)CC[C@]3(C)C(CCC4[C@@]5(C)CC[C@H](O)C(C)(C)C5CC[C@]43C)C12` (stereo partly shown) [Example 257]: 328 nM and 54 nM.
With `C=C(C)[C@@H]1CC[C@]2(C(=O)NCCc3cccc(C(=O)NCc4ccc(C(=O)N[C@H](CC(=O)O)C(=O)O)cn4)c3)CC[C@]3(C)C(CCC4[C@@]5(C)CC[C@H](O)C(C)(C)C5CC[C@]43C)C12` (stereo partly shown) [Example 222], the EC50 in experiment [1] (setting [2]) was found to be 727 nM. For the same compound, the IC50 with HIV-1NL4-3 (setting [4]) was found to be 65.7 nM.
As for `C=C(C)[C@@H]1CC[C@]2(C(=O)NCCc3cccc(C(=O)NC(CCC(=O)OC)C(=O)OC)c3)CC[C@]3(C)C(CCC4[C@@]5(C)CC[C@H](O)C(C)(C)C5CC[C@]43C)C12` (stereo partly shown) [Example 63], the EC50 was 90 nM in experiment [1] (setting [2]) and less than 100 nM in experiment [1] (setting [3]). Besides, the IC50 is 35.9 nM in the experiment with HIV-1NL4-3 (setting [4]) and less than 100 nM with HIV-1NL4-3 (setting [5]).
Turning to `C=C(C)[C@@H]1CC[C@]2(C(=O)NCc3cccc(C(=O)NCCc4ccc(C(=O)O)c(F)c4)c3)CC[C@]3(C)C(CCC4[C@@]5(C)CC[C@H](O)C(C)(C)C5CC[C@]43C)C12` (stereo partly shown) [Example 40], the figures for the EC50 in experiment [1] (setting [2]) and in experiment [1] (setting [3]) were 6.3 nM and less than 100 nM, respectively. Moreover, the IC50 with HIV-1NL4-3 (setting [4]) was 19.9 nM; in the experiment on HIV-1NL4-3 (setting [5]) it was less than 100 nM.
`C=C(C)[C@@H]1CC[C@]2(C(=O)NCCc3cccc(C(=O)NCC(N)=O)c3)CC[C@]3(C)C(CCC4[C@@]5(C)CC[C@H](O)C(C)(C)C5CC[C@]43C)C12` (stereo partly shown) [Example 72]: the EC50 in experiment [1] (setting [2]) was 10000 nM. In the experiment on HIV-1NL4-3 (setting [4]), the 50% inhibitory concentration (IC50) came out at 194 nM.
Regarding `C=C(C)[C@@H]1CC[C@]2(C(=O)NCCc3cccc(C(=O)NCc4ccccn4)c3)CC[C@]3(C)C(CCC4[C@@]5(C)CC[C@H](O)C(C)(C)C5CC[C@]43C)C12` (stereo partly shown) [Example 150], the EC50 in experiment [1] (setting [2]) came out at 122 nM. Also, in the experiment on HIV-1NL4-3 (setting [4]), the IC50 was 24 nM.
Consider `C=C(C)[C@@H]1CC[C@]2(C(=O)NCc3cccc(C(=O)NCc4ccc(N(C)C)cc4)c3)CC[C@]3(C)C(CCC4[C@@]5(C)CC[C@H](O)C(C)(C)C5CC[C@]43C)C12` (stereo partly shown) [Example 47], for which the EC50 in experiment [1] (setting [2]) was 41.3 nM; in experiment [1] (setting [3]) it was less than 100 nM. The IC50 was 36.3 nM in the experiment on HIV-1NL4-3 (setting [4]) and less than 100 nM with HIV-1NL4-3 (setting [5]).
As to `C=C(C)[C@@H]1CC[C@]2(C(=O)NCCc3cccc(C(=O)NCc4ccc(C(=O)O)cn4)c3)CC[C@]3(C)C(CCC4[C@@]5(C)CC[C@H](O)C(C)(C)C5CC[C@]43C)C12` (stereo partly shown) [Example 76], the EC50 was 89 nM in experiment [1] (setting [2]) and less than 100 nM in experiment [1] (setting [3]). The IC50 was 10.4 nM with HIV-1NL4-3 (setting [4]) and less than 100 nM in the experiment with HIV-1NL4-3 (setting [5]).
Consider `C=C(C)[C@@H]1CC[C@]2(C(=O)NCCc3cccc(C(=O)NCc4ccc(C(=O)NCc5ncccc5C(=O)OC)cc4)c3)CC[C@]3(C)C(CCC4[C@@]5(C)CC[C@H](O)C(C)(C)C5CC[C@]43C)C12` (stereo partly shown) [Example 187], for which the EC50 in experiment [1] (setting [2]) was 40 nM. Besides, the IC50 with HIV-1NL4-3 (setting [4]) stood at 8 nM.
As to `C=C(C)[C@@H]1CC[C@]2(C(=O)NCc3cc(C(=O)NCc4ccc(C(=O)O)cc4)ccc3F)CC[C@]3(C)C(CCC4[C@@]5(C)CC[C@H](O)C(C)(C)C5CC[C@]43C)C12` (stereo partly shown) [Example 99], the EC50 in experiment [1] (setting [2]) is 2.8 nM; in experiment [1] (setting [3]), less than 100 nM. The IC50 is 20.1 nM in the experiment on HIV-1NL4-3 (setting [4]) and less than 100 nM in the experiment with HIV-1NL4-3 (setting [5]).
Turning to `C=C(C)[C@@H]1CC[C@]2(C(=O)NCCc3cccc(C(=O)NCc4ccc(N)cc4)c3)CC[C@]3(C)C(CCC4[C@@]5(C)CC[C@H](O)C(C)(C)C5CC[C@]43C)C12` (stereo partly shown) [Example 181], the EC50 in experiment [1] (setting [2]) was 28 nM. For the same compound, the IC50 with HIV-1NL4-3 (setting [4]) worked out at 19 nM.
The matching figures for `C=C(C)[C@@H]1CC[C@]2(C(=O)NCCc3cccc(C(=O)NCc4ccc(C(=O)NCCc5cnc[nH]5)cn4)c3)CC[C@]3(C)C(CCC4[C@@]5(C)CC[C@H](O)C(C)(C)C5CC[C@]43C)C12` (stereo partly shown) [Example 272]: 12.4 nM and 3.1 nM.
Taken in the same sequence, the figures for `C=C(C)[C@@H]1CC[C@]2(C(=O)NCCc3cccc(C(=O)NCc4ccc(O)c(C(=O)O)c4)c3)CC[C@]3(C)C(CCC4[C@@]5(C)CC[C@H](O)C(C)(C)C5CC[C@]43C)C12` (stereo partly shown) [Example 240] were 33 nM and 19 nM.
Taken in the same sequence, the figures for `C=C(C)[C@@H]1CC[C@]2(C(=O)NCCc3cccc(C(=O)NCc4ccc(OCCCN5CCNCC5)c(C(=O)O)c4)c3)CC[C@]3(C)C(CCC4[C@@]5(C)CC[C@H](O)C(C)(C)C5CC[C@]43C)C12` (stereo partly shown) [Example 245] were 35 nM and 27.4 nM.
For the compound `C=C(C)[C@@H]1CC[C@]2(C(=O)NCCc3cccc(C(=O)N[C@H](C)C4CCC(C(=O)O)CC4)c3)CC[C@]3(C)C(CCC4[C@@]5(C)CC[C@H](O)C(C)(C)C5CC[C@]43C)C12` (stereo partly shown) [Example 215], the EC50 in experiment [1] (setting [2]) is 11.5 nM. Further, in the experiment with HIV-1NL4-3 (setting [4]), the IC50 stood at 22 nM.
On to `C=C(C)[C@@H]1CC[C@]2(C(=O)NCCc3cccc(C(=O)NCc4ccc(C(=O)O)cc4)c3)CC[C@]3(C)C(CCC4[C@@]5(C)CC[C@H](O)C(C)(C)C5CC[C@]43C)C12` (stereo partly shown) [Example 67], for which the figures for the EC50 in experiment [1] (setting [2]) and in experiment [1] (setting [3]) were 23 nM and less than 100 nM, respectively. Further, the figures for the IC50 with HIV-1NL4-3 (setting [4]) and in the experiment on HIV-1NL4-3 (setting [5]) were 7.5 nM and less than 100 nM, respectively.
`C=C(C)[C@@H]1CC[C@]2(C(=O)NCCc3cccc(C(=O)NCc4ccc(C(=O)N(C)CCc5ccccn5)cc4)c3)CC[C@]3(C)C(CCC4[C@@]5(C)CC[C@H](O)C(C)(C)C5CC[C@]43C)C12` (stereo partly shown) [Example 137]: the EC50 in experiment [1] (setting [2]) is 10.5 nM; in experiment [1] (setting [3]), less than 100 nM. The half-maximal inhibitory concentration (IC50) in the experiment on HIV-1NL4-3 (setting [4]) is 10.8 nM; in the experiment with HIV-1NL4-3 (setting [5]) it was less than 100 nM.
Regarding `C=C(C)[C@@H]1CC[C@]2(C(=O)NCc3cccc(C(=O)NCc4cccc(C(=O)O)c4C)c3)CC[C@]3(C)C(CCC4[C@@]5(C)CC[C@H](O)C(C)(C)C5CC[C@]43C)C12` (stereo partly shown) [Example 17], the EC50 was 87 nM in experiment [1] (setting [2]) and less than 100 nM in experiment [1] (setting [3]). Besides, the figures for the half-maximal inhibitory concentration (IC50) with HIV-1NL4-3 (setting [4]) and in the experiment with HIV-1NL4-3 (setting [5]) were 32 nM and less than 100 nM, respectively.
